Source: paper PMC5963734 (Neuron, 2018)

Test system: PSD-95 - α-actinin interaction
Conditions: acute forebrain slices, 100 μM NMDA for 5 min; Figure 7

CN[C@H](CC(=O)O)C(=O)O [NMDA]
co-IP of CaM with PSD-95 after NMDA: strongly increased | co-IP of α-actinin with PSD-95 after NMDA: nearly abolished
